{
  "source": "patent EP2131850B1",
  "about": "“EXTRACTS OF ASTER KORAIENSIS, AND PHARMACEUTICAL COMPOSITION AND FUNCTIONAL FOOD COMPRISING THE SAME” (Korea Institute of Oriental Medicine, priority 2007, dated 2008)",
  "test_system": "production of advanced glycation endproducts (glycation of bovine serum albumin (BSA))",
  "assay": "In vitro inhibition of production of advanced glycation endproducts (BSA/fructose/glucose culture, fluorescence)",
  "type": "biochemical",
  "settings": "for Inhibition (%) of production of advanced glycation endproducts Inhibition: cultured at 37 °C for 14 days",
  "method": "For the in vitro analysis of the inhibitory effect cf each cf the leaf and stem extract of Aster koraiensis, the root extract of Aster koraiensis, the flower extract of Aster koraiensis, and the fractions cf each of the extracts, on the production cf advanced glycation endproducts, bovine serum albumin (hereinafter, referred to as BSA; Sigma, USA)) was selected as a protein source. BSA was added to 50 mM phosphate buffer (pH 7.4) to a concentration of 10 mg/mℓ. As a sugar source, a mixture of 0.2 M fructose and 0.2 M glucose was used. The fructose/glucose mixture was added to the prepared BSA solution. As test groups, each of the leaf and stem extract cf Aster koraiensis, the root extract cf Aster koraiensis, the flower extract of Aster koraiensis, and the hexane fraction, ethyl acetate fraction, butanol fraction and water fraction of each cf the extracts, was dissolved in distilled water. Then, each of the solutions was added to the BSA/sugar mixture and cultured at 37 °C for 14 days.\nAt this time, 0.02% sodium azide was added as an antibacterial agent. A control group was a culture of the BSA/sugar mixture, and the blank of each cf the test groups and the control group was not cultured after their preparation. Meanwhile, as a positive control for use as an index to determine the superiority cf the inventive material, aminoguanidine was used. Four samples for each of the cultures were prepared to minimize errors. After 14 days, the content of advanced glycation endproducts (AGEs) in each of the cultures was analyzed, and the analysis results were recorded. […] The amount cf advanced glycation endproducts having such properties was measured with a spectrofluorometer (excitation: 350 nm, and emission: 450 nm) to analyze the inhibition of the production of advanced glycation endproducts. […]\nEach of the root extract and flower extract of Aster koraiensis, prepared in Example, were prepared into solutions having concentrations cf 10 µg/mℓ, 25 µg/mℓ and 50 µg/mℓ, respectively. […] After 14 days, the amount of advanced glycation endproducts produced in each of the cultures was measured with a spectrcfluorometer (excitation: 350 nm, and emission: 450 nm), and the measurement results are shown in Table 1 and FIG. 2.\nThe inhibition of the production of advanced glycation endproducts is calculated according to the following equation: Inhibition (%) of production = 100-(fluorescentintensityofsamplegroupfluorescentintensityofblankofsamplegroup)/(fluorenscentintensityofcontrolgroup-fluorescentintensityofblankofcontrolgroup)x100 [formula] […]\nAfter 14 days, the amount cf advanced glycation endproducts produced in each cf the cultures was measured with a spectrcfluorometer (excitation: 350 nm, and emission: 450 nm).",
  "data": [
    {"compound": "N=C(N)NN", "note": "[Aminoguanidine]", "values": [
      {"measurement": "Inhibition (%) of production of advanced glycation endproducts Inhibition", "setting": "concentration 18.5 µg/mℓ", "result": "12.70 ± 6.12", "unit": "%"},
      {"measurement": "Inhibition (%) of production of advanced glycation endproducts Inhibition", "setting": "concentration 55.5 µg/mℓ", "result": "39.46 ± 1.91", "unit": "%"},
      {"measurement": "Inhibition (%) of production of advanced glycation endproducts Inhibition", "setting": "concentration 74.0 µg/mℓ", "result": "50.68 ± 0.51", "unit": "%"},
      {"measurement": "IC50 inhibitory concentration", "setting": "production of advanced glycation endproducts, BSA/sugar mixture, 14 days", "result": 72.12, "unit": "µg/mL"}
    ]}
  ]
}
